The results in this text go back to patent publication US11078222B2, “Hydroxybenzoic acid derivatives, methods and uses thereof” (UNiVERSIDADE DO PORTO, priority 2016, dated 2021).

Molecules are shown by their SMILES. pIC50: −log10 of the molar value.

Data set [1] in a line: ABTS radical cation scavenging activity. The format is biochemical. The following applies: ethanol, 15 min.
Experimental: (§1) The radical scavenging activity of AntiOxClNs was evaluated by means of total antioxidant capacity assays based on DPPH., ABTS.^+ and GO. radicals. All these methods involved the spectrophotometric measurement of the absorbance decrease resulting from radical (DPPH., ABTS.^+ or GO.) deactivation with an antioxidant. The results were expressed in IC50, which is defined as the minimum antioxidant concentration necessary to reduce the amount of radical by 50%. Antioxidant assays were performed in a multiplate reader (Powerwave XS Microplate Reader) from Bio Tech instruments.
In an embodiment, the ABTS.^+ scavenging activity was evaluated as follows: ethanolic solutions of the test compounds with increasing concentrations (range between 10 μM and 500 μM) were prepared. ABTS. radical cation solution was obtained by addition of 150 mM aqueous potassium persulfate solution (163 μL) to 10 mL of 7 mM aqueous ABTS solution followed by storage in the dark at room temperature for 16 h (2.45 mM final concentration). The solution was then diluted in ethanol to reach the absorbance of 0.72±0.02. After addition of the compound (20 μL), in triplicate, to ABTS.^+ solution (180 μL) the spectrophotometric measurement was carried out each minute over 15 minutes. […] Dose-response curves were established for the determination of IC50 values.
The nature of data set [2]: Redox potential by differential pulse and cyclic voltammetry, glassy carbon electrode. The data set is classed as physicochemical. The following applies: physiological pH 7.4. The method, then: In an embodiment, the oxidative behaviour of the parent antioxidants (protocatechuic and gallic acids) and AntiOxBENs was evaluated at physiological pH 7.4, by differential pulse and cyclic voltammetry, using a glassy carbon working electrode. […] For pyrogallol derivatives (gallic acid, AntiOxBEN2, AntiOxBEN3), a significant decrease in redox potentials was observed (Ep=0.163-0.168 V) (Table 1).
In an embodiment, the electrochemical analytical data was obtained using a computer controlled potentiostat Autolab PGSTAT302N (Metrohm Autolab, Utrecht, Netherlands). Generally, cyclic voltammetry (CV) data was acquired at a scan rate of 50 mVs^−1. Differential pulse voltammetry (DPV) results were acquired at a step potential of 4 mV, pulse amplitude of 50 mV and scan rate of 8 mVs^−1. The electrochemical signals were monitored by the General Purpose Electrochemical System (GPES) version 4.9, software package. All electrochemical experiments were performed at room temperature in an electrochemical cell that was placed in a Faraday cage in order to minimize the contribution of background noise to the analytical signal.
In an embodiment, the process of evaluation of AntiOxBENs redox properties was conducted as follows: stock solutions of each compound (10 mM) were prepared by dissolving the appropriate amount in ethanol. The voltammetric working solutions were prepared in the electrochemical cell, at a final concentration of 0.1 mM. The […] supporting electrolyte was prepared by diluting 6.2 mL of 0.2 M dipotassium hydrogen phosphate and 43.8 mL of 0.2 M potassium dihydrogen phosphate to 100 mL. Voltammetric data was acquired in a three-electrode system consisting of a glassy carbon electrode (GCE, d=2 mm) as working electrode, a counter electrode of platinum wire and a saturated Ag/AgCl reference electrode. In an embodiment, the evaluation of AntiOxBENs lipophilic properties was performed as follows: the electrochemical cell was a four-electrode system with arrays of micro liquid-liquid interfaces (μITIES) containing two Ag/AgCl reference electrodes and two counter electrodes of Pt, one in each phase. The microporous membrane was sealed with a fluorosilicone sealant (Dow Corning 730) onto a glass cylinder which was filled with 4.0 mL of the aqueous phase, where the aliquots of AntiOxBENs solutions were added. The membrane was then immersed into the organic phase contained in the cell. The organic phase reference solution (a 2 mM BTPPACI+2 mM NaCl aqueous solution) was mechanically stabilized The aqueous supporting electrolyte solution was a Tris-HCl buffer 10 mM pH 7.0.

Data set [3] has as its system rat liver mitochondria (RLM). The data set can be described thus: Mitochondrial respiration of isolated RLM (Clark-type oxygen electrode): RCR, ADP/O. The data set is classed as biochemical. The settings on record: RLM. Here is the method:
In an embodiment, and as an example, the toxicity effects of some AntiOxBENs and MitoQ on the mitochondrial bioenergetics, namely on RLM Δψ and respiration parameters, were measured. The Δψ represents the main component of the electrochemical gradient generated by mitochondrial respiration and accounts for more than 90% of the total available energy. For mitochondrial respiration assays, glutamate/malate (for complex I) and succinate (for complex II) were used as substrates. In addition, the mitochondrial oxidative phosphorylation coupling index, known as respiratory control ratio (RCR, state 3/state 4 respiration) and ADP/O index (the coupling between ATP synthesis and oxygen consumption) were also calculated. AntiOxBENs and MitoQ were tested at antioxidant-relevant concentrations, with 10 μM being the highest concentration.
In an embodiment, the evaluation of AntiOxBENs effect on mitochondrial respiration was performed as follows: the respiration of isolated RLM was evaluated polarographically with a Clark-type oxygen electrode, connected to a suitable recorder in a 1 mL thermostated water-jacketed chamber with magnetic stirring, at 37° C. […] Increasing concentrations of AntiOxBENs (2.5-10 μM) were added to the reaction medium containing respiratory substrates glutamate/malate (10 mM and 5 mM respectively) or succinate (5 mM) and RLM (1 mg) and allowed to incubate for a 5 min period prior to the assay. State 2 was considered as the respiration during the 5 min incubation time with AntiOxBENs. […] State 4 was determined after ADP phosphorylation finished. Subsequent addition of oligomycin (2 μg/ml) inhibited ATPsynthase and originated the oligomycin-inhibition respiration state. Finally, 1 μM FCCP was added to induce uncoupled respiration. […] Data are means are means±SEM of seven independent experiments.

Data set [4] deals with rat liver mitochondria (RLM). The data set can be described thus: Mitochondrial uptake by energised RLM, TPP-selective electrode. The data set is classed as in vitro ADME. The method, then: In an embodiment, and as an example, the mitochondrial uptake of some AntiOxBENs was assessed in isolated rat liver mitochondria (RLM) in response to the membrane potential. AntiOxBENs can accumulate inside mitochondria driven by the Δψ (FIG. 3A). Different AntiOxBENs accumulation outlines within the mitochondrial matrix have been measured. […] The following ranking order was attained: AntiOxBEN2<AntiOxBEN1<AntiOxBEN3.
In an embodiment, the AntiOxBENs mitochondria uptake by energized RLM was evaluated as follows: RLM (0.5 mg protein/mL) were incubated with AntiOxBENs at 37° C. under constant stirring in 1 mL of KCl medium (120 mM KCl, 10 mM HEPES, pH 7.2 and 1 mM EGTA). Five sequential 1 μM additions of each AntiOxBENs were performed to calibrate the electrode response in the presence of rotenone (1.5 μM). Then, succinate (10 mM) was added to generate […]. Valinomicin (0.2 μg/mL) was added at the end of the assay to dissipate Δψ. The measurements were performed with an ion-selective electrode, which measure the distribution of tetraphenylphosphonium cation (TPP+) and Ag/AgCl2 electrode as reference. The mitochondrial accumulation ratio was calculated by the disappearance of AntiOxBENs from extra- to intramitochondrial medium assuming an intramitochondrial volume of 0.5 μL/mg protein and a binding correction for the mitochondrial uptake of TPP compounds.

A short description of data set [5]: Lipophilicity: transfer potential at ITIES (water/1,6-dichlorohexane) by DPV. The format is physicochemical. The following applies: aqueous phase C=0.32 mM to 1,6-dichlorohexane, physiological pH. Here is the method:
In an embodiment, and as an example, the AntiOxBEN1 and AntiOxBEN2 lipophilic properties were evaluated using differential pulse voltammetry (DPV) at physiological pH. The used technique is often used to mimic the transfer of ionic drugs through biological membranes as the process occurs at the interface between two immiscible electrolyte solutions (ITIES). The transfer potential (Etr) at which the ionic drug, initially present in the aqueous phase (C=0.32 mM), is transferred to 1,6-dichlorohexane (DCH) phase is measured by differential pulse voltammetry (DPV). In the ITIES model, the transfer potential (Etr) becomes less positive with the increasing of the drug lipophilic character.
In an embodiment, the electrochemical analytical data was obtained using a computer controlled potentiostat Autolab PGSTAT302N (Metrohm Autolab, Utrecht, Netherlands). Generally, cyclic voltammetry (CV) data was acquired at a scan rate of 50 mVs^−1. Differential pulse voltammetry (DPV) results were acquired at a step potential of 4 mV, pulse amplitude of 50 mV and scan rate of 8 mVs^−1. The electrochemical signals were monitored by the General Purpose Electrochemical System (GPES) version 4.9, software package. […]

Data set [6] in a line: GO radical scavenging activity. The format is biochemical. The settings on record: ethanol, 428 nm, 30 min.
Experimental: The selected total antioxidant capacity (TAC) assays (DPPH, ABTS and GO) involved the spectrophotometric measurement of the radical absorbance decrease as a result of an in situ radical deactivation by an antioxidant.
as §1
In an embodiment, the GO. scavenging activity was evaluated as follows: solutions of test compounds with concentrations from 10 μM to 100 μM were prepared in ethanol. An ethanolic solution of 5 mM GO. was prepared and diluted to reach the absorbance of 1.00±0.02 at 428 nm. The addition (20 μL) in triplicate of compound solution to GO. solution (180 μL) was followed by absorbance measurement at 428 nm over 30 minutes, in the dark, at room temperature. […] Dose-response curves were established for the determination of IC50 values.

As usually defined, the pIC50 is −log10 of the IC50, conventionally taken in molar units. High values mean a small IC50, low ones a large IC50. For `O=C(NCCCCCC[P+](c1ccccc1)(c1ccccc1)c1ccccc1)c1ccc(O)c(O)c1.[Br-]` [AntiOxBEN1, 6-(3,4-dihydroxybenzamido)hexyltriphenylphosphonium bromide], the negative logarithm of the IC50 (pIC50) in data set [1] was 4.52; in data set [6] it was 5.37. The “Ep (redox potential)” value in data set [2] was 0.224 V. Also, the ADP/O in data set [3] (Glutamate/Malate, 2.5 μM) is on record as 2.5 ± 0.2; in data set [3] (Glutamate/Malate, 5 μM) it was 2.8 ± 0.4; in data set [3] (Glutamate/Malate, 10 μM) it was 2.1 ± 0.1; in data set [3] (Succinate, 2.5 μM), 1.7 ± 0.03; in data set [3] (Succinate, 5 μM), 1.6 ± 0.1; in data set [3] (Succinate, 10 μM) it was 1.5 ± 0.1. Moreover, the RCR amounted to 4.9 ± 0.6 in data set [3] (Glutamate/Malate, 2.5 μM); 4.4 ± 0.6 in data set [3] (Glutamate/Malate, 5 μM); 2.6 ± 0.1 in data set [3] (Glutamate/Malate, 10 μM); 4.7 ± 0.3 in data set [3] (Succinate, 2.5 μM); 3.0 ± 0.3 in data set [3] (Succinate, 5 μM); 2.8 ± 0.3 in data set [3] (Succinate, 10 μM). For the same molecule, in data set [4] (energised RLM, succinate), the “accumulation ratio by rat liver mitochondria” value (from here on “accumulation ratio”) is “AntiOxBEN2<AntiOxBEN1<AntiOxBEN3”. For the same molecule, the “transfer potential (Etr)” value in data set [5] came to 0.405 V.

For `O=C(NCCCCCC[P+](c1ccccc1)(c1ccccc1)c1ccccc1)c1cc(O)c(O)c(O)c1.[Br-]` [AntiOxBEN2, 6-(3,4,5-trihydroxybenzamido)hexyltriphenylphosphonium bromide], the pIC50 was 4.99 in data set [1] and 5.52 in data set [6]. Also, the “Ep (redox potential)” value in data set [2] (listed as MitoBEN2) is listed as 0.168 V. Further, the ADP/O is given as 2.3 ± 0.3 in data set [3] (Glutamate/Malate, 2.5 μM); 2.3 ± 0.2 in data set [3] (Glutamate/Malate, 5 μM); 2.1 ± 0.2 in data set [3] (Glutamate/Malate, 10 μM); 1.7 ± 0.1 in data set [3] (Succinate, 2.5 μM); 1.7 ± 0.1 in data set [3] (Succinate, 5 μM); 1.6 ± 0.04 in data set [3] (Succinate, 10 μM). Also, the RCR in data set [3] (Glutamate/Malate, 2.5 μM) amounted to 4.3 ± 0.6; in data set [3] (Glutamate/Malate, 5 μM), 3.9 ± 0.5; in data set [3] (Glutamate/Malate, 10 μM) it was 2.9 ± 0.3; in data set [3] (Succinate, 2.5 μM) it was 5.2 ± 0.9; in data set [3] (Succinate, 5 μM), 3.8 ± 0.4; in data set [3] (Succinate, 10 μM) it was 3.5 ± 0.3. Also, in data set [4] (energised RLM, succinate), the “accumulation ratio” value is “AntiOxBEN2<AntiOxBEN1<AntiOxBEN3”. Moreover, in data set [5], the “transfer potential (Etr)” value worked out at 0.495 V.

On to `O=C(CCCCC[P+](c1ccccc1)(c1ccccc1)c1ccccc1)NCCCCCCNC(=O)c1cc(O)c(O)c(O)c1.[Br-]` [AntiOxBEN3, [5-(6-(3,4,5-trihydroxybenzamido)hexylamino)carbonylpentyl]triphenylphosphonium bromide], for which the pIC50 in data set [1] is 5.02; in data set [6], 5.47. Besides, in data set [2] (listed as MitoBEN3), the “Ep (redox potential)” value is 0.164 V. Also, the ADP/O in data set [3] (Glutamate/Malate, 2.5 μM) turned out to be 2.3 ± 0.2; in data set [3] (Glutamate/Malate, 5 μM), 2.3 ± 0.1; in data set [3] (Glutamate/Malate, 10 μM), 2.0 ± 0.2; in data set [3] (Succinate, 2.5 μM), 1.6 ± 0.1; in data set [3] (Succinate, 5 μM), 1.6 ± 0.1; in data set [3] (Succinate, 10 μM), 1.7 ± 0.1. For the same molecule, the RCR in data set [3] (Glutamate/Malate, 2.5 μM) was found to be 3.9 ± 0.5; in data set [3] (Glutamate/Malate, 5 μM), 3.9 ± 0.6; in data set [3] (Glutamate/Malate, 10 μM) it was 3.07 ± 0.6; in data set [3] (Succinate, 2.5 μM), 4.1 ± 0.5; in data set [3] (Succinate, 5 μM) it was 4.3 ± 0.7; in data set [3] (Succinate, 10 μM), 3.9 ± 0.4. In data set [4] (rat, 5 μM, pH 7.2), the “accumulation ratio” value is on record as “AntiOxBEN2<AntiOxBEN1<AntiOxBEN3”.
